Where a name gives a salt, the structure may show the parent alone.
biological target: T1, HCV1b NS5B polymerase delta 21 (Hepatitis C virus genotype 1b, UniProt P26663); test: RNA-Dependent RNA HCV NS5B (Polymerase) Assay and IC50 Determination; assay type: biochemical
T1 construct: purified HCV1b NS5B polymerase delta 21
Experimental: RNA-Dependent RNA HCV NS5B (Polymerase) Assay and IC50 Determination
In vitro RNA-dependent RNA polymerase activity was determined in a reaction mixture (50 μL) containing 50 mM Tris-HCl, pH 7.5, 5 mM MgCl2, 1 mM dithiothreitol, 0.5% Triton® X-100, 10 μM of UTP, 0.1-0.5 μCi of α-^32P UTP (Perkin Elmer Life Sciences), 1 μg of polyA:U16 (Midland Oligo), and 0.6 μg of purified HCV1b NS5B polymerase delta 21. Different concentrations of compounds were added to the reaction mixtures. The reaction was carried out at RT (23° C.) for 60 min and then stopped by the addition of 100 μL of 50 mM EDTA. The reaction mixtures were filtered through either a DE81 membrane or a positively charged nylon membrane, and the membranes were then extensively washed with 30 mM sodium citrate, pH 7.0 and 300 mM NaCl. The radiolabeled RNA products were quantitated using a Storm™ Phosphorlmager™ (GE Life Sciences). IC50 values were calculated using GraFit 6 and GraphPad Prism 5 from triplicate assays.

T1 sequence (P26663 2420-2989): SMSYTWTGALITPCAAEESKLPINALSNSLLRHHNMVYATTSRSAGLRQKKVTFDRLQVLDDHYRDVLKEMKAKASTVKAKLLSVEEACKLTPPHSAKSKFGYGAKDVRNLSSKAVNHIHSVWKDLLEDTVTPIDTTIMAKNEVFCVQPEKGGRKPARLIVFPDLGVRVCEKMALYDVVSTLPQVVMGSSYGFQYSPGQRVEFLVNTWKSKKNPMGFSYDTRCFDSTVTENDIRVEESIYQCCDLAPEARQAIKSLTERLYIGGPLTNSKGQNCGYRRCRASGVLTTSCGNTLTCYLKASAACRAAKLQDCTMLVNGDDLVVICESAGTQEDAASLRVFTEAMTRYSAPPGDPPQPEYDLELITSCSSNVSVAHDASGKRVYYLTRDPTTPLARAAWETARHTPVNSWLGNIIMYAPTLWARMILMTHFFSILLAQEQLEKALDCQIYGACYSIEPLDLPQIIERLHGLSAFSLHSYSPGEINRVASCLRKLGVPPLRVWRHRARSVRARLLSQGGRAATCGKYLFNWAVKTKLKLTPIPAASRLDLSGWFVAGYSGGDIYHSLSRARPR

Compared with `CC1CCC(C2=C(c3cc(-c4ccccc4)sc3C(=O)O)CCN(Cc3ccc4ccccc4n3)C2)CC1` (stereo not shown) [Example 143, 3-[5-(4-Methyl-cyclohexyl)-1-quinolin-2-ylmethyl-1,2,3,6-tetrahydro-pyridin-4-yl]-5-phenyl-thiophene-2-carboxylic acid], `CC1CCC(C2=C(c3cc(-c4ccccc4)sc3C(=O)O)CCN(Cc3ccccn3)C2)CC1` (stereo not shown) [Example 087, 3-[5-(4-Methyl-cyclohexyl)-1-pyridin-2-ylmethyl-1,2,3,6-tetrahydro-pyridin-4-yl]-5-phenyl-thiophene-2-carboxylic acid] is lower in IC50: greater than 10 µM for the first, less than 3 µM for the second. The second is the more potent here.

Compared with `CC1CCC(C2=C(c3cc(-c4ccccc4)sc3C(=O)O)CCN(C(=O)c3ccc(C(F)(F)F)nc3)C2)CC1` (stereo not shown) [Example 154, 3-[5-(4-Methyl-cyclohexyl)-1-(6-trifluoromethyl-pyridine-3-carbonyl)-1,2,3,6-tetrahydro-pyridin-4-yl]-5-phenyl-thiophene-2-carboxylic acid], `CC1CCC(C2=C(c3cc(-c4ccccc4)sc3C(=O)O)CCN(C(=O)c3cncn3C)C2)CC1` (stereo not shown) [Example 156, 3-[5-(4-Methyl-cyclohexyl)-1-(3-methyl-3H-imidazole-4-carbonyl)-1,2,3,6-tetrahydro-pyridin-4-yl]-5-phenyl-thiophene-2-carboxylic acid] is higher in IC50: less than 3 µM for the first, greater than 10 µM for the second.

First: CC1CCC(C2=C(c3cc(-c4ccccc4)sc3C(=O)O)CCN(CCCc3ccccc3)C2)CC1 (stereo not shown) [Example 110, 3-[5-(4-Methyl-cyclohexyl)-1-(4-phenyl-propyl)-1,2,3,6-tetrahydro-pyridin-4-yl]-5-phenyl-thiophene-2-carboxylic acid]
Second: CC1CCC(C2=C(c3cc(-c4ccccc4)sc3C(=O)O)CCN(Cc3ccccc3)C2)CC1 (stereo not shown) [Example 043, 3-[1-Benzyl-5-(4-methyl-cyclohexyl)-1,2,3,6-tetrahydro-pyridin-4-yl]-5-phenyl-thiophene-2-carboxylic acid]
The IC50 of the first is higher: greater than 10 µM for the first, 3 to 10 µM for the second. The second is the more potent here.

`CC1CCC(C2=C(c3cc(-c4ccccc4)sc3C(=O)O)CCN(C(=O)Cn3cnc4ccccc43)C2)CC1` (stereo not shown) [Example 152, 3-[1-(2-Benzoimidazol-1-yl-acetyl)-5-(4-methyl-cyclohexyl)-1,2,3,6-tetrahydro-pyridin-4-yl]-5-phenyl-thiophene-2-carboxylic acid] and `CC1CCC(C2=C(c3cc(-c4ccccc4)sc3C(=O)O)CCN(Cc3cccnc3)C2)CC1` (stereo not shown) [Example 089, 3-[5-(4-Methyl-cyclohexyl)-1-pyridin-3-ylmethyl-1,2,3,6-tetrahydro-pyridin-4-yl]-5-phenyl-thiophene-2-carboxylic acid] cannot be ordered by IC50: less than 3 µM for the first, less than 3 µM for the second.

First: Cc1ccc(S(=O)(=O)N2CCC(c3cc(-c4ccccc4)sc3C(=O)O)=C(C3CCC(C)CC3)C2)cc1 (stereo not shown) [Example 036, 3-[5-(4-Methyl-cyclohexyl)-1-(toluene-4-sulfonyl)-1,2,3,6-tetrahydro-pyridin-4-yl]-5-phenyl-thiophene-2-carboxylic acid]
Second: CCN1CCC(c2cc(-c3ccccc3)sc2C(=O)O)=C(C2CCC(C)CC2)C1 (stereo not shown) [Example 044, 3-[1-Ethyl-5-(4-methyl-cyclohexyl)-1,2,3,6-tetrahydro-pyridin-4-yl]-5-phenyl-thiophene-2-carboxylic acid]
The IC50 of the first is higher: greater than 10 µM for the first, less than 3 µM for the second.

`CCN1CCC(c2cc(-c3ccc(NC(=O)c4nccs4)cc3)sc2C(=O)O)=C(C2CCC(C)CC2)C1` (stereo not shown) [Example 066, 3-[1-Ethyl-5-(4-methyl-cyclohexyl)-1,2,3,6-tetrahydro-pyridin-4-yl]-5-{4-[(thiazole-2-carbonyl)-amino]-phenyl}-thiophene-2-carboxylic acid] and `CCN1CCC(c2cc(-c3ccc(NC(=O)c4cocn4)cc3)sc2C(=O)O)=C(C2CCC(C)CC2)C1` (stereo not shown) [Example 052, 3-[1-Ethyl-5-(4-methyl-cyclohexyl)-1,2,3,6-tetrahydro-pyridin-4-yl]-5-{4-[(oxazole-4-carbonyl)-amino]-phenyl}-thiophene-2-carboxylic acid] cannot be ordered by IC50: less than 3 µM for the first, less than 3 µM for the second.

`CC1CCC(C2=C(c3cc(-c4ccc(-c5cc6nccc(N)n6n5)cc4)sc3C(=O)O)CCN(C)C2)CC1` (stereo not shown) [Example 132, 5-[4-(7-Amino-pyrazolo[1,5-a]pyrimidin-2-yl)-phenyl]-3-[1-methyl-5-(4-methyl-cyclohexyl)-1,2,3,6-tetrahydro-pyridin-4-yl]-thiophene-2-carboxylic acid, hydrochloride salt] and `CC1CCC(C2=C(c3cc(-c4ccc(-c5cc6ncccn6n5)cc4)sc3C(=O)O)CN(C)CC2)CC1` (stereo not shown) [Example 169, 3-[1-Methyl-4-(4-methyl-cyclohexyl)-1,2,5,6-tetrahydro-pyridin-3-yl]-5-(4-pyrazolo[1,5-a]pyrimidin-2-yl-phenyl)-thiophene-2-carboxylic acid] cannot be ordered by IC50: less than 3 µM for the first, less than 3 µM for the second.

Compared with `CCCCN1CCC(c2cc(-c3ccccc3)sc2C(=O)O)=C(C2CCC(C)CC2)C1` (stereo not shown) [Example 007, 3-[1-Butyl-5-(4-methyl-cyclohexyl)-1,2,3,6-tetrahydro-pyridin-4-yl]-5-phenyl-thiophene-2-carboxylic acid], `CCN1CCC(c2cc(-c3cccc(N)c3)sc2C(=O)O)=C(C2CCC(C)CC2)C1` (stereo not shown) [Example 026, 5-(3-Amino-phenyl)-3-[1-ethyl-5-(4-methyl-cyclohexyl)-1,2,3,6-tetrahydro-pyridin-4-yl]-thiophene-2-carboxylic acid] is higher in IC50: less than 3 µM for the first, 3 to 10 µM for the second. The first is the more potent here.

First: CN1CCC(c2cc(-c3ccccc3)sc2C(=O)O)=C(CCC2CCCC2)C1 [Example 063, 3-[5-(2-Cyclopentyl-ethyl)-1-methyl-1,2,3,6-tetrahydro-pyridin-4-yl]-5-phenyl-thiophene-2-carboxylic acid]
Second: CC1CCC(C2=C(c3cc(-c4ccccc4)sc3C(=O)O)CCN(Cc3ccnc(Br)c3)C2)CC1 (stereo not shown) [Example 144, 3-[1-(2-Bromo-pyridin-4-ylmethyl)-5-(4-methyl-cyclohexyl)-1,2,3,6-tetrahydro-pyridin-4-yl]-5-phenyl-thiophene-2-carboxylic acid]
The IC50 of the first is higher: greater than 10 µM for the first, 3 to 10 µM for the second. The second is the more potent here.

Compared with `CCN1CCC(c2cc(-c3ccc(C(=O)O)cc3)sc2C(=O)O)=C(C2CCC(C)CC2)C1` (stereo not shown) [Example 035, 5-(4-Carboxy-phenyl)-3-[1-ethyl-5-(4-methyl-cyclohexyl)-1,2,3,6-tetrahydro-pyridin-4-yl]-thiophene-2-carboxylic acid], `CCN1CCC(c2cc(-c3ccc(NC(C)=O)cc3)sc2C(=O)O)=C(C2CCC(C)CC2)C1` (stereo not shown) [Example 018, 5-(4-Acetylamino-phenyl)-3-[1-ethyl-5-(4-methyl-cyclohexyl)-1,2,3,6-tetrahydro-pyridin-4-yl]-thiophene-2-carboxylic acid] is higher in IC50: less than 3 µM for the first, 3 to 10 µM for the second. The first is the more potent here.

`CC1CCC(C2=C(c3cc(C#CC(C)(C)C)sc3C(=O)O)CCN(CCO)C2)CC1` (stereo not shown) [Example 168, 5-(3,3-Dimethyl-but-1-ynyl)-3-[1-(2-hydroxy-ethyl)-5-(4-methyl-cyclohexyl)-1,2,3,6-tetrahydro-pyridin-4-yl]-thiophene-2-carboxylic acid] and `CC1CCC(C2=C(c3cc(C#CC(C)(C)C)sc3C(=O)O)CN(CCF)CC2)CC1` (stereo not shown) [Example 124, 5-(3,3-Dimethyl-but-1-ynyl)-3-[1-(2-fluoro-ethyl)-4-(4-methyl-cyclohexyl)-1,2,5,6-tetrahydro-pyridin-3-yl]-thiophene-2-carboxylic acid] cannot be ordered by IC50: less than 3 µM for the first, less than 3 µM for the second.

`CCN1CCC(c2cc(-c3ccc(NC(=O)c4csc(C)n4)cc3)sc2C(=O)O)=C(C2CCC(C)CC2)C1` (stereo not shown) [Example 048, 3-[1-Ethyl-5-(4-methyl-cyclohexyl)-1,2,3,6-tetrahydro-pyridin-4-yl]-5-{4-[(2-methyl-thiazole-4-carbonyl)-amino]-phenyl}-thiophene-2-carboxylic acid] and `CCN1CCC(c2cc(-c3ccc(NC(=O)c4ccco4)cc3)sc2C(=O)O)=C(C2CCC(C)CC2)C1` (stereo not shown) [Example 054, 3-[1-Ethyl-5-(4-methyl-cyclohexyl)-1,2,3,6-tetrahydro-pyridin-4-yl]-5-{4-[(furan-2-carbonyl)-amino]-phenyl}-thiophene-2-carboxylic acid] cannot be ordered by IC50: less than 3 µM for the first, less than 3 µM for the second.

Compared with `CCN1CCC(c2cc(C#CC(C)(C)NC(=O)c3cscn3)sc2C(=O)O)=C(C2CCC(C)CC2)C1` (stereo not shown) [Example 022, 3-[1-Ethyl-5-(4-methyl-cyclohexyl)-1,2,3,6-tetrahydro-pyridin-4-yl]-5-{3-methyl-3-[(thiazole-4-carbonyl)-amino]-but-1-ynyl}-thiophene-2-carboxylic acid], `CC1CCC(C2=C(c3cc(-c4ccc(NC(=O)c5ccccn5)cc4)sc3C(=O)O)CCN(C)C2)CC1` (stereo not shown) [Example 042, 3-[1-Methyl-5-(4-methyl-cyclohexyl)-1,2,3,6-tetrahydro-pyridin-4-yl]-5-{4-[(pyridine-2-carbonyl)-amino]-phenyl}-thiophene-2-carboxylic acid] is lower in IC50: greater than 10 µM for the first, less than 3 µM for the second. The second is the more potent here.

`CC1CCC(C2=C(c3cc(-c4ccc(N)cc4)sc3C(=O)O)CCN(C)C2)CC1` (stereo not shown) [Example 004, 5-(4-Amino-phenyl)-3-[1-methyl-5-(4-methyl-cyclohexyl)-1,2,3,6-tetrahydro-pyridin-4-yl]-thiophene-2-carboxylic acid] and `CC1CCC(C2=C(c3cc(-c4ccc(-n5cc6ncccc6n5)cc4)sc3C(=O)O)CCN(C)C2)CC1` (stereo not shown) [Example 165, 3-[1-Methyl-5-(4-methyl-cyclohexyl)-1,2,3,6-tetrahydro-pyridin-4-yl]-5-(4-pyrazolo[4,3-b]pyridin-2-yl-phenyl)-thiophene-2-carboxylic acid] cannot be ordered by IC50: less than 3 µM for the first, less than 3 µM for the second.

From patent US8771665B2 (Cocrystal Discovery, Inc., priority 2010, dated 2014)
